For data set [1] the following is noted: James, A. et al., 2015; cited from earlier work.
A short description of data set [2]: Pharmacokinetic studies in Sprague Dawley (SD) rats, oral gavage, plasma. The data set is classed as in vivo. To be noted: for AUC(0-t) / AUC(0-inf) / Cmax / Tmax / Vd/F: Sprague-Dawley, rat; for AUC(0-t) / AUC(0-inf) / Cmax / Tmax / Vd/F / plasma concentration at 24-h timepoint / CLz/F: oral gavage; for AUC(0-t) / AUC(0-inf) / Cmax / Tmax / Vd/F / CLz/F: plasma; for Vd/F: read-out: Vz/F; for plasma concentration at 24-h timepoint: 0.322 mg/kg. As for the experimental part: (a) SD rats, six in a group (n=6), were grouped randomly. Compound 1 (Alpelisib-^18O1) and Alpelisib were mixed and adjusted to 1:1 molar ratio in dosing solution (1.25 mg/mL); and the dosing solution was administered to the animals, via oral gavage, at a dose level of 2.5 mg/kg. Blood samples were collected at pre-set time points following drug administration, at 0.167, 0.5, 1, 2, 3, 4, 6, 8, and 24 hours (h). The blood samples were converted to plasma samples using standard techniques, and the latter samples were analyzed to determine the concentrations of Compound 1 and Alpelisib. In FIG. 1a, lines labelled with -o- and -Δ-represent the plasma concentrations of Alpelisib-^18O1 and Alpelisib, respectively, following oral administration of the same molar dose of Alpelisib-^18O1 and Alpelisib to the animals.
(b) Similarly, Compound 1 (Alpelisib-^18O1) and Alpelisib were administered to the animals (SD rats, n=4), via oral gavage, at a low dose (dose level of 0.322 mg/kg). Blood samples were collected at pre-set time points following drug administration, at 0.167, 0.5, 1, 2, 4, 6, 8, 10 and 24 hours (h). The blood samples were converted to plasma samples using standard techniques, and the latter samples were analyzed to determine the concentrations of Compound 1 and Alpelisib. […] In FIG. 1b, solid line and dashed line represent the plasma concentrations of Alpelisib-^18O1 and Alpelisib, respectively.

Data set [3] in a line: Pharmacokinetic studies in ICR mice, oral gavage, plasma. The data set is classed as in vivo. To be noted: 2.5 mg/kg; for AUC(0-inf) / AUC(0-t) / Cmax / Tmax / Vd/F: mouse; for AUC(0-inf) / AUC(0-t) / Cmax / Tmax / Vd/F / CLz/F: oral gavage, 1:1 molar mix, plasma; for Vd/F: read-out: Vz/F. As for the experimental part:
ICR mice, 48, in 6 groups (n=8), were grouped randomly. Compound 1 (Alpelisib-^18O1) and Alpelisib were mixed and adjusted to 1:1 molar ratio in dosing solution (1.25 mg/mL); and the dosing solution was administered to the animals, via oral gavage, at a dose level of 2.5 mg/kg. Blood samples were collected (a group of 8 animals for each time point) at time points, after dosing, at 0.5, 1, 2, 4, 8, and 12 h. The blood samples were converted to plasma samples using standard techniques, and the latter samples were analyzed to determine the concentrations of Compound 1 and Alpelisib. In FIG. 2, lines labelled with -o- and -Δ-represent the plasma concentrations of Alpelisib-^18O1 and Alpelisib, respectively, following oral administration of the same dose of Alpelisib-^18O1 and Alpelisib to the animals.

Data set [4] can be described thus: Pharmacokinetic studies in beagle dogs, single oral dose, co-administered. The data set is classed as in vivo. To be noted: for Cmax / Tmax / half-life / AUC(0-t) / Vd/F: both sexes, dog, plasma; for Cmax / Tmax / half-life / AUC(0-t) / Vd/F / CLz/F: single oral dose 2.5 mg/kg each; for Cmax / Tmax / half-life / Vd/F / CLz/F: co-administered; for AUC(0-t): co-administered (total 5 mg/kg); for Vd/F: read-out: Vz/F. The protocol:
Male and female beagle dogs (n=4; 2 males and 2 females) were used in the study. A single oral dose of Alpelisib (2.5 mg/kg) and Compound 1 (^18O1-Alpelisib) (2.5 mg/kg) were co-administered (at a total dose of 5 mg/kg) in DMSO and 0.5% carboxymethyl cellulose sodium (CMC-Na) aqueous solution (5:95, v/v). Blood samples were collected for analysis of Alpelisib and ^18O1-Alpelisib at 0.25, 0.5, 1, 1.5, 2, 3, 4, 6, 8, 10, 12 and 24 h. In FIG. 4, lines labelled with -o- and -Δ- represent the plasma concentrations of Alpelisib-^18O1 and Alpelisib, respectively, following oral administration of the same dose of Alpelisib-^18O1 and Alpelisib to the animals.

A short description of data set [5]: M4 and M4-18O1 production in male Wistar rat liver S9. The data set is classed as in vitro ADME. Conditions: male Wistar rat liver S9, 37° C., β-NADPH, 0-240 min, equal molar co-incubation. As for the experimental part: (§1) Stock solution (50 μL) containing equal molar concentration of Alpelisib and Alpelisib-^18O1 was diluted with pre-warmed (37° C., water bath) 0.1 M Tris-Acetate buffer; and the concentration of each compound in this working solution was 4.5 μM. In each incubation well were added the above working solution (50 μL) and a liver S9 solution (50 μL), mixed well. The sample was pre-incubated for 5 min, following by addition, to each well, of β-NADPH dosing solution (100 μL). The sample plate was incubated at 37° C., and analyzed at time points of 0, 15, 30, 60, and 240 min., in triplicates. Sample analysis: at a pre-set time-point, a stop solution (800 μL, acetonitrile) was added to each well; the sample was well-mixed (Vortex), and centrifuged at 12000 rpm for 5 minutes; the supernatant was transferred to analytical sample vial, and then analyzed with LC-MS/MS, for M4 and M4-^18O1. […] Liver S9 used in the experiment: (a) monkey liver S9, (b) pooled human S9, (c) mini pig liver S9, and (d) male Wistar rat Liver S9.

Data set [6] is described as follows: M4 and M4-18O1 production in mini pig liver S9. The data set is classed as in vitro ADME. Conditions: mini pig liver S9, 37° C., β-NADPH, 0-240 min, equal molar co-incubation. The protocol:
as §1

The nature of data set [7]: M4 and M4-18O1 production in pooled human S9. Conditions: pooled human S9, 37° C., β-NADPH, 0-240 min, equal molar co-incubation. The data set is classed as in vitro ADME. As for the experimental part:
as §1

Data set [8] in a line: M4 and M4-18O1 production in monkey liver S9. The data set is classed as in vitro ADME. Conditions: monkey liver S9, 37° C., β-NADPH, 0-240 min, equal molar co-incubation. As for the experimental part:
as §1

Where [9] appears, read: dose 2.5 mg/kg, 1:1 molar mix of Compound 1 and Alpelisib.

On to `Cc1nc(NC(=O)N2CCC[C@H]2C(=O)O)sc1-c1ccnc(C(C)(C)C(F)(F)F)c1` [Compound M4], for which the “biological activity of the acid metabolite” value in data set [1] was “biologically inactive”.
`Cc1nc(NC(=O)N2CCC[C@H]2C(N)=O)sc1-c1ccnc(C(C)(C)C(F)(F)F)c1` [Alpelisib, N-(4-methyl-5-(2-(2,2,2-trifluoro-1,1-dimethylethyl)-4-pyridinyl)-2-thiazolyl)aminocarbonyl-L-prolinamide, reference compound] registered an area under the curve AUC(0-t) in data set [2] (setting [9]) of 26400 ng·h/mL. Moreover, in data set [2] (dose 2.5 mg/kg, 1:1 molar mix), the AUC(0-inf) turned out to be 26500 ng·h/mL, the highest level (Cmax) was 2300 ng/mL, the Tmax worked out at 3 h and the Vd/F amounted to 1.8 L/kg. The CLz/F in data set [2] (dose 2.5 mg/kg, 1:1 molar mix) came to 7.87 mL/min/kg. Moreover, in data set [2] (low dose 0.322 mg/kg), the AUC(0-inf) was 80.3 ng·h/mL, the AUC(0-t) stood at 75.2 ng·h/mL, the Cmax is 28.1 ng/mL and the Tmax amounted to 0.625 h. Also, in data set [2] (low dose 0.322 mg/kg), the Vd/F was determined as 13.1 L/kg and the CLz/F was 68.3 mL/min/kg. In data set [2], the “plasma concentration at 24-h timepoint” value was “below the limit of quantification”. In data set [3], the AUC(0-inf) came to 30600 ng·h/mL, the AUC(0-t) turned out to be 26200 ng·h/mL, the Cmax worked out at 4210 ng/mL and the Tmax was determined as 2 h. For the same compound, in data set [3], the Vd/F was determined as 2.37 L/kg and the CLz/F came out at 6.82 mL/min/kg. In data set [4], the Cmax stood at 931 ng/mL, the Tmax turned out to be 1.2 h, the half-life was 5.4 h and the AUC(0-t) was determined as 6120 ng·h/mL. Besides, in data set [4], the Vd/F stood at 3 L/kg and the CLz/F was 6.83 mL/min/kg.
Regarding `Cc1nc(NC(=O)N2CCC[C@H]2C(N)=[18O])sc1-c1ccnc(C(C)(C)C(F)(F)F)c1` [Compound 1, N-(4-methyl-5-(2-(2,2,2-trifluoro-1,1-dimethylethyl)-4-pyridinyl)-2-thiazolyl)aminocarbonyl-L-prolin-^18O-amide], the “metabolism compared to Alpelisib (M4-18O1 versus M4 production)” value in data set [5], in data set [6], in data set [7] and in data set [8] was “reduced” throughout. The AUC(0-t) in data set [2] (setting [9]) was found to be 28700 ng·h/mL; in data set [2] (low dose 0.322 mg/kg), 118 ng·h/mL; in data set [3], 27800 ng·h/mL; in data set [4], 6680 ng·h/mL. For the same compound, the AUC(0-inf) in data set [2] (dose 2.5 mg/kg, 1:1 molar mix) worked out at 28800 ng·h/mL; in data set [2] (low dose 0.322 mg/kg), 132 ng·h/mL; in data set [3] it was 32600 ng·h/mL. Moreover, the Cmax in data set [2] (dose 2.5 mg/kg, 1:1 molar mix) came out at 2390 ng/mL; in data set [2] (low dose 0.322 mg/kg), 32.6 ng/mL; in data set [3] it was 4520 ng/mL; in data set [4] it was 1470 ng/mL. Besides, the Tmax in data set [2] (dose 2.5 mg/kg, 1:1 molar mix) was found to be 3 h; in data set [2] (low dose 0.322 mg/kg) it was 0.875 h; in data set [3], 2 h; in data set [4] it was 1.1 h. The Vd/F came out at 1.66 L/kg in data set [2] (dose 2.5 mg/kg, 1:1 molar mix); 11.4 L/kg in data set [2] (low dose 0.322 mg/kg); 2.24 L/kg in data set [3]; 2.4 L/kg in data set [4]. Also, in data set [2], the “plasma concentration at 24-h timepoint” value was “below the limit of quantification”. The CLz/F in data set [2] (dose 2.5 mg/kg, 1:1 molar mix) was 7.23 mL/min/kg; in data set [2] (low dose 0.322 mg/kg) it was 41.7 mL/min/kg; in data set [3] it was 6.4 mL/min/kg; in data set [4] it was 6.33 mL/min/kg. Further, the “plasma concentration compared with Alpelisib” value in data set [2] (oral, both doses tested (2.5 and 0.322 mg/kg), greatest effect at low dose) is given as “higher”; in data set [3] (oral), “higher”; in data set [4] (oral, 2.5 mg/kg each) it was “higher”. For the same compound, the half-life in data set [4] was 4.5 h.

(Values after patent US11970490B2, “Stable heavy isotopes in amide functional groups and uses thereof” (RISEN (SUZHOU) PHARMA TECH CO., LTD., priority 2020, dated 2024).)
